In brackets after ≈: the same amount, converted by molar mass. Marks after values point to notes of the source that are not given here.
Experiments:
Micro shake flask Log D = conditions: for Mean LogD: Octanol:PBS 1:9, pH 7.4, 10 μM, six replicates, novel compounds as hemifumarate; for logD at 2 h: pH 7.4
Procedure: 6 replicates of each test compound were incubated at 10 μM in a 1:9 ratio of Octanol: PBS at pH 7.4. Following a two hour incubation at room temperature shaking at 600 rpm, the incubation plate was centrifuged for 15 minutes to separate the layers and then two aliquots were removed from the PBS layer. The first was left neat and the second was diluted 10-fold to give dilute samples. Internal standards were added to both the calibration curve and the PBS incubation samples for analysis on LC MS/MS.
All 6 replicates of the neat samples were averaged to give one value for each, with the same calculation performed for the dilute sample values.

[1] = Intake study: serum concentrations after oral ingestion by two volunteers; conditions: for c(Psilocin): study 1
Procedure: Two volunteers (1 M, 1 F) ingested about 1 mg of each one of P1 and M1 (Study 1) and P2 and M2 (Study 2) in gelatin capsules (exact amounts in Tables 3 and 4). One blood sample was collected prior to ingestion of the substances and served as a zero control. After ingestion samples were collected for about 8 h with increasing time intervals between sample taking (exact protocol in Tables 4 and 5). […] The obtained sera were transferred in plastic tubes and NaF (ca. 30 mg) and ascorbic acid (ca. 5 mg) were added to increase analytes stability.
200 μL serum were spiked with an internal standard solution (10 μL) and ACN (600 μL) was added to precipitate soluble proteins. Before mixing thoroughly ammonium formate (10 M, 200 μL) was added separate the aqueous from the organic phase. After centrifugation (6 min, 4,000×g), 500 μL of the organic phase were transferred into another vial and evaporated to dryness at 40° C. under a gentle stream of nitrogen. Samples were reconstituted in 100 μL mobile phase (A/B, 90/10, v/v) and used for analysis. For quantification a blank sample and a six point calibration (0.5, 1.0, 2.0, 5.0, 10, 20 ng/mL) in calf serum were prepared as described above.
The HPLC-MS system consisted of a Nexera X2 UHPLC system composed of three LC-30AD pumps, a DGU-30A3 degasser, a SIL-30AC autosampler, a CTO-10AS column oven and a CBM-20A controller (Shimadzu, Duisburg, Germany) coupled to a QTRAP 6500plus triple quadrupole linear ion trap mass spectrometer equipped with a TurbolonSpray Interface (Sciex, Darmstadt, Germany). The MS was operated in positive electrospray ionization mode. Data acquisition was performed in scheduled multiple reaction monitoring mode (detection window: 60 s) using Analyst software (version 1.7). MS parameters (declustering potential, entrance potential, collision energy, and collision cell exit potential) were optimized for all substances to obtain the best possible signal intensities (summary of the MRM parameters are given in Table 5). Ion source temperature and ion source voltage were set to 550° C. and +5500 V, respectively. Dwell time was 20 ms for every MRM transition. Curtain gas (N2) pressure was 35 psi, ion source gas 1 and 2 (compressed air) pressure were 50 and 60 psi, respectively, and collision gas (N2) pressure was set to “high.” Chromatographic separation was performed on a Kinetex® biphenyl column (100×2.1 mm, 2.6 μm particle size, Phenomenex, Aschaffenburg, Germany) with a corresponding guard column (SecurityGuard™ ULTRA Cartridges UHPLC Biphenyl for 2.1 mm ID columns, Phenomenex, Aschaffenburg, Germany). The autosampler and the column oven temperature were set to 10° C. and 40° C., respectively. The injection volume was 10 μL.

[2] = molecular target: T1, serotonin 2A (5-HT2A) receptor (Mus musculus, UniProt P35363); test: Head twitch response (HTR) in mice; assay type: in vivo, male C57BL/6J mice; conditions: oral gavage 0.3 mg/kg
T1 construct: tissue Charles River UK; host or cells: whole living male C57BL/6J mice (in vivo, oral gavage)
T1 sequence (P35363 whole entry): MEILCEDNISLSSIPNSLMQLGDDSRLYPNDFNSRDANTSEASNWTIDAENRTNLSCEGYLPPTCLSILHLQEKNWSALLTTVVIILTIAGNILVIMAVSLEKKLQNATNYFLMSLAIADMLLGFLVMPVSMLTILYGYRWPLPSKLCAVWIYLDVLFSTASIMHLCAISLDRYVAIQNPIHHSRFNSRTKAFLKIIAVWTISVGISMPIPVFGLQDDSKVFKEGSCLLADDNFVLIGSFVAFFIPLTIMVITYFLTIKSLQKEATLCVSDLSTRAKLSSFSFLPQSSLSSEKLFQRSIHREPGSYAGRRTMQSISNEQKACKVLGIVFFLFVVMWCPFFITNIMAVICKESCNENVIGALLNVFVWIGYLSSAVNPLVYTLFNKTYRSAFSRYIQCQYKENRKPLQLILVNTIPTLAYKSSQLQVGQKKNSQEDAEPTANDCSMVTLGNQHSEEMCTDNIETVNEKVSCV

[3] = Kinetic solubility assay (Example 11)
Procedure: Test and control compounds were diluted to 10 mM in DMSO and then further diluted 1 in 50 in 50 mM PB (pH 7.4) to a target concentration of 200 μM. Samples were vortexed for at least 2 minutes and then left to shake (800 rpm) at room temperature for 24 hours. Visual appearance was assessed before centrifugation and injection into a UPLC system to measure concentration. […] Each compound was tested in duplicate.

[4] = Shake flask Log D assay (Example 11); assay type: physicochemical; conditions: 1-Octanol / 100 mM PB pH 7.4, shake flask, LC-MS/MS; test compound as hydrochloride
Procedure: Test and control compounds were diluted to 10 mM in DMSO. 2 μl of each stock solution was aliquoted into tubes in duplicate. 1-Octanol saturated phosphate buffer (PB) (pH 7.4) was prepared by adding 1-Octanol into 100 ml of 100 mM PB (7.4). PB saturated 1-Octanol was prepared by adding 10 ml of 100 mM PB (7.4) into 100 ml of 1-Octanol. 149 μl of each solution was aliquoted into the corresponding tubes. These were then mixed vigorously for 2 minutes and shaken (800 rpm) at room temperature for one hour. The appropriate volume of buffer and 1-Octanol layer samples was aliquoted and diluted, before detection using LC-MS/MS.
Log D was calculated according to the following equation: […]

[5] = Kinetic turbidimetric solubility assay; conditions: 0.01 M PBS pH 7.4, 2% DMSO, room temperature, novel compounds as hemifumarate, psilocybin and psilocin free base; for solubility at 5 min: pH 7.4, aqueous buffer, kinetic from dmso stock
Procedure: Each test compound was diluted to 10 mM in DMSO. From this solution, six further dilutions of each test compound were prepared in DMSO (0.02, 0.1, 0.2, 1, 2, and 5 mM). […] Three replicate wells were designated per concentration. Following the dilutions in buffer, plates were incubated at room temperature shaking for 5 minutes before the absorbance was measured at 620 nm using a Molecular Devices SpectraMax384 UV detector. Nicardipine was tested as a control compound.
Solubility was estimated from the concentration of test compound that produced an increase in absorbance above a threshold of 0.005 absorbance units and was normalized to the DMSO blank.

[6] = serum, oral intake of about 1 mg prodrug, mean of 2 volunteers

## CCOC(=O)Oc1cccc2[nH]cc(CCN(C)C)c12 [Psilocin-4-yl-ethylcarbonate, psilocin-4-yl ethyl carbonate]
Micro shake flask Log D
  Mean LogD: 1.22
[1]; serum after oral ingestion of about 1 mg
  Parent prodrug itself in serum (not detected, LOD): < 0.05 ng/mL
[1]; [6]
  Cmax of psilocin: 1.1 ± 0.5 ng/mL
  Tmax of psilocin: 0.933 ± 0.217 h
  elimination constant kel of psilocin: 0.0039 min⁻¹
  elimination half life t1/2 of psilocin: 3.18 h
[1]; serum, test person A, oral P1 1.03 mg salt, 15 min, below LOQ, extrapolated
  c(Psilocin): 0.15* ng/mL
[1]; serum, test person A, oral P1 1.03 mg salt, 21 min
  c(Psilocin): 0.34 ng/mL
[1]; serum, test person A, oral P1 1.03 mg salt, 31 min
  c(Psilocin): 0.51 ng/mL
[1]; serum, test person A, oral P1 1.03 mg salt, 49 min
  c(Psilocin): 0.82 ng/mL
[1]; serum, test person A, oral P1 1.03 mg salt, 65 min
  c(Psilocin): 1.45 ng/mL
[1]; serum, test person A, oral P1 1.03 mg salt, 87 min
  c(Psilocin): 1.02 ng/mL
[1]; serum, test person A, oral P1 1.03 mg salt, 120 min
  c(Psilocin): 1.02 ng/mL
[1]; serum, test person A, oral P1 1.03 mg salt, 155 min
  c(Psilocin): 0.59 ng/mL
[1]; serum, test person A, oral P1 1.03 mg salt, 165 min
  c(Psilocin): 0.98 ng/mL
[1]; serum, test person A, oral P1 1.03 mg salt, 240 min
  c(Psilocin): 0.58 ng/mL
[1]; serum, test person A, oral P1 1.03 mg salt, 338 min
  c(Psilocin): 0.34 ng/mL
[1]; serum, test person A, oral P1 1.03 mg salt, 371 min
  c(Psilocin): 0.33 ng/mL
[1]; serum, test person A, oral P1 1.03 mg salt, 424 min, below LOQ, extrapolated
  c(Psilocin): 0.29* ng/mL
[1]; serum, test person A, oral P1 1.03 mg salt, 486 min, below LOQ, extrapolated
  c(Psilocin): 0.26* ng/mL
[1]; serum, test person B, oral P1 0.99 mg salt, 6 min, below LOQ, extrapolated
  c(Psilocin): 0.22* ng/mL
[1]; serum, test person B, oral P1 0.99 mg salt, 13 min, below LOQ, extrapolated
  c(Psilocin): 0.25* ng/mL
[1]; serum, test person B, oral P1 0.99 mg salt, 20 min
  c(Psilocin): 0.38 ng/mL
[1]; serum, test person B, oral P1 0.99 mg salt, 30 min
  c(Psilocin): 0.60 ng/mL
[1]; serum, test person B, oral P1 0.99 mg salt, 47 min
  c(Psilocin): 0.76 ng/mL
[1]; serum, test person B, oral P1 0.99 mg salt, 64 min
  c(Psilocin): 0.54 ng/mL
[1]; serum, test person B, oral P1 0.99 mg salt, 83 min
  c(Psilocin): 0.60 ng/mL
[1]; serum, test person B, oral P1 0.99 mg salt, 114 min
  c(Psilocin): 0.43 ng/mL
[1]; serum, test person B, oral P1 0.99 mg salt, 165 min
  c(Psilocin): 0.37 ng/mL
[1]; serum, test person B, oral P1 0.99 mg salt, 232 min
  c(Psilocin): 0.32 ng/mL
[1]; serum, test person B, oral P1 0.99 mg salt, 322 min, below LOQ, extrapolated
  c(Psilocin): 0.25* ng/mL
[1]; serum, test person B, oral P1 0.99 mg salt, 369 min, below LOQ, extrapolated
  c(Psilocin): 0.24* ng/mL
[1]; serum, test person B, oral P1 0.99 mg salt, 432 min, below LOQ, extrapolated
  c(Psilocin): 0.22* ng/mL
[2]; N = 8
  Mean number of head twitches 0-15 mins: 3.5
  Mean number of head twitches 15-30 mins: 3.13
  Mean number of head twitches 30-45 mins: 3.38
  Mean number of head twitches 45-60 mins: 1.13
[2]; N = 8, 0.3 mg/kg
  Mean number of head twitches Total 0-60 mins: 10.84

## NC(=O)N1c2ccccc2C=Cc2ccccc21 [Carbamazepine]
[3]; 50 mM PB pH 7.4, target 200 μM, 24 hours shaking at room temperature, UPLC, test compound as hydrochloride
  Detected concentration: 180 µM
[3]; pH 7.4, aqueous buffer, kinetic from dmso stock
  solubility at 24 h: > 180 µM

## CN(C)CCCN1c2ccccc2Sc2ccc(Cl)cc21 [Chlorpromazine]
[4]
  logD at 1 h: 3.28

## CCOC(=O)Oc1cccc2[nH]cc(CCN(C)CC)c12 [N-methyl-N-ethyltryptamine-4-yl ethylcarbonate]
Micro shake flask Log D
  Mean LogD: 1.01
[2]; N = 8
  Mean number of head twitches 15-30 mins: 3.5
  Mean number of head twitches 30-45 mins: 2.38
  Mean number of head twitches 45-60 mins: 0.38
[5]
  Solubility: >200 µM

## CN(C)CCc1c[nH]c2cccc(O)c12 [Psilocin, psilocin]
Micro shake flask Log D
  logD at 2 h: 1.01
[5]
  solubility at 5 min: > 200 µM

## COC(=O)C1=C(C)NC(C)=C(C(=O)OCCN(C)Cc2ccccc2)C1c1cccc([N+](=O)[O-])c1 (stereo not shown) [Nicardipine]
[5]
  solubility at 5 min: 24.4 µM (≈ 11.7 µg/mL)

## CC(C)(C)NCC(O)COc1cccc2c1CC(O)C(O)C2 (stereo not shown) [Nadolol]
[4]
  logD at 1 h: -1.33

## CN(C)CCc1c[nH]c2cccc(OP(=O)(O)O)c12 [Psilocybin, psilocybin, reference compound]
Micro shake flask Log D
  logD at 2 h: 0.57
[5]
  solubility at 5 min: ≥ 100 µM

— patent US20230295086A1, “NOVEL PSILOCIN DERIVATIVES HAVING PRODRUG PROPERTIES” (COMPASS […], priority 2020, published 2023)
